Measured values taken from patent publication EP4775568A1, “NOVEL COMPOUND AND USE THEREOF FOR TREATING PSORIASIS” (Gwangju Institute of Science and Technology, priority 2023, dated 2025).
Values belong to the molecule of their own block, whether it stands above or below them.

Biological target: T1, CMKLR1 (Homo sapiens, UniProt Q99788)
T1 construct: expressed in transfected cells; host or cells: CHO-K1 cells expressing Gα-16 (CHO-Ga16-CMKLR1)
T1 sequence (Q99788 1-373): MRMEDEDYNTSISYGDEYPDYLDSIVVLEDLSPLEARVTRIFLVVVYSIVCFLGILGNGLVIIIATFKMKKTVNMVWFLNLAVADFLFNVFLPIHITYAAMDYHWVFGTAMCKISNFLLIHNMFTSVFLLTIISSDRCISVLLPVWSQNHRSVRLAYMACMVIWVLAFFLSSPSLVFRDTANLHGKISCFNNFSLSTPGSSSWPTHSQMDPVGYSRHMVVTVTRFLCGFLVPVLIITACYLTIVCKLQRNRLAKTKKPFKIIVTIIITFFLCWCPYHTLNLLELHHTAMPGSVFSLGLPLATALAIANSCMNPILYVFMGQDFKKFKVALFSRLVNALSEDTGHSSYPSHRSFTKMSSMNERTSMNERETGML
Test: Calcium mobilization assay (CHO-Ga16-CMKLR1 cells, chemerin-9 induced signal)
Format: cell-based
Settings: for IC50: calcium signal induced by 2.5 nM chemerin-9; for inhibition at 10 µM: read-out: CMKLR1 activity in CHO cells (% inhibition at 10 µM), 10 µM compound, relative to calcium signal induced by 2.5 nM chemerin-9
Method: To establish a CMKLR1 calcium mobilization cell evaluation system, CHO-K1 cells expressing Gα-16 were transfected with pcDNA3.1-derived human CMKLR1-expressing plasmids using Lipofectamine 2000 (Invitrogen, Waltham, Massachusetts, USA). […] The established cell line (CHO-Ga16-CMKLR1) was cultured in F-12 medium (Invitrogen) supplemented with 10% (v/v) fetal bovine serum (FBS; Invitrogen), 0.5 mg/mL geneticin, 0.2 mg/mL hygromycin B (Clontech), and 1% (v/v) antibiotic-antimycotic solution (Invitrogen) under 5% CO2 at 37°C.
100 µL/well was added to a 96-well plate (Corning) and incubated for 24 h. The buffer solution was prepared by adding 1 M HEPES solution to Hanks' Balanced Salt Solution (HBSS) (Invitrogen) and adjusting the pH to 7.4 by dropwise addition of 1 M NaOH.
The fluorescent dye solution was prepared using the buffer provided with the Calcium 5 Assay Kit (Molecular Devices). 40 µL/well of dye solution was added to each well and incubated at 37°C in a 5% CO2 atmosphere for 30 min. […] The final DMSO concentration was adjusted to 2%. 40 µL of each compound solution was added to the well and incubated for 30 min. […] Prism 5 software (GraphPad) was then used to obtain IC50 values for various compounds. IC50 values were derived based on concentration-response curves, and all experiments were repeated at least three times.

SMILES: C[C@@H](CC(=O)O)c1ccc(OCc2ccc3c(-c4ccc(O)cc4Cl)nn(C4CCCC4)c3c2)cc1 [Compound 42, (S)-3-(4-((3-(2-chloro-4-hydroxyphenyl)-1-cyclopentyl-1H-indazol-6-yl)methoxy)phenyl)butanoic acid]
IC50 (Table 3, IC50 class): 100 to 1000 nM

SMILES: CC(=O)Nc1ccc(-c2nn(C3CCCC3)c3cc(COc4ccc(C(C)CC(=O)O)cc4)ccc23)cc1 (centres unmarked) [Compound 61, 3-(4-((3-(4-acetamidophenyl)-1-cyclopentyl-1H-indazol-6-yl)methoxy)phenyl)butanoic acid]
IC50 (Table 4, IC50 class): > 1000 nM

SMILES: CC(CC(=O)O)c1ccc(OCc2ccc3c(-c4ccncc4)nn(C4CCCC4)c3c2)cc1 (centres unmarked) [Compound 23, 3-(4-((1-cyclopentyl-3-(pyridin-4-yl)-1H-indazol-6-yl)methoxy)phenyl)butanoic acid]
IC50 (Table 2, IC50 class): > 1000 nM

SMILES: CC(CC(=O)O)c1ccc(OCc2ccc3c(-c4ccc(OC/C=C/C(=O)O)cc4)nn(C4CCCC4)c3c2)cc1 (centres unmarked) [Compound 28, (E)-4-(4-(6-((4-(1-carboxypropan-2-yl)phenoxy)methyl)-1-cyclopentyl-1H-indazol-3-yl)phenoxy)but-2-enoic acid]
IC50 (Table 2, IC50 class): > 1000 nM

SMILES: CC(=O)Nc1ccc(-c2nn(C3CCCC3)c3cc(COc4ccc(C(C)CC(=O)O)cc4)ccc23)cc1 (centres unmarked) [Compound 60, 3-(4-((3-(4-acetamidophenyl)-1-cyclopentyl-1H-indazol-6-yl)methoxy)phenyl)butanoic acid]
IC50 (Table 4, IC50 class): > 1000 nM

SMILES: CC(CC(=O)O)c1ccc(OCc2ccc3c(-c4nnn[nH]4)nn(C4CCCC4)c3c2)cc1 (centres unmarked) [Compound 32, 3-(4-((1-cyclopentyl-3-(1H-tetrazol-5-yl)-1H-indazol-6-yl)methoxy)phenyl)butanoic acid]
IC50 (Table 3, IC50 class): > 1000 nM

SMILES: CCOc1ccc(-c2nn(C3CCCC3)c3cc(COc4ccc(C(C)CC(=O)O)cc4)ccc23)cc1 (centres unmarked) [Compound 29, 3-(4-((1-cyclopentyl-3-(4-ethoxyphenyl)-1H-indazol-6-yl)methoxy)phenyl)butanoic acid]
IC50 (Table 2, IC50 class): > 1000 nM

SMILES: CC(CC(=O)O)c1ccc(OCc2ccc3c(-c4ccccc4)nn(C)c3c2)cc1 (centres unmarked) [Compound 77, 3-(4-((1-methyl-3-phenyl-1H-indazol-6-yl)methoxy)phenyl)butanoic acid]
inhibition at 10 µM: 24%

SMILES: CC(CC(=O)O)c1ccc(OCc2ccc3c(-c4ccccc4)nn(C(C)C)c3c2)cc1 (centres unmarked) [Compound 7, 3-(4-((1-isopropyl-3-phenyl-1H-indazol-6-yl)methoxy)phenyl)butanoic acid]
inhibition at 10 µM: 81%

SMILES: CC(CC(=O)O)c1ccc(OCc2ccc3c(-c4cc5ccccc5s4)nn(C4CCCC4)c3c2)cc1 (centres unmarked) [Compound 25, 3-(4-((3-(benzo[b]thiophen-2-yl)-1-cyclopentyl-1H-indazol-6-yl)methoxy)phenyl)butanoic acid]
IC50 (Table 2, IC50 class): > 1000 nM

SMILES: COc1ccc(-c2nn(C3CCCC3)c3cc(COc4ccc([C@H](C)CC(=O)O)cc4)ccc23)cc1 [Compound 57, (R)-3-(4-((1-cyclopentyl-3-(4-methoxyphenyl)-1H-indazol-6-yl)methoxy)phenyl)butanoic acid]
IC50 (Table 4, IC50 class): > 1000 nM

SMILES: CC(CC(=O)O)c1ccc(OCc2ccc3c(-c4ccccc4)nn(CC4CC4)c3c2)cc1 (centres unmarked) [Compound 81, 3-(4-((1-(cyclopropylmethyl)-3-phenyl-1H-indazol-6-yl)methoxy)phenyl)butanoic acid]
inhibition at 10 µM: 35%

SMILES: C[C@@H](CC(=O)O)c1ccc(OCc2ccc3c(-c4ccc(O)c([N+](=O)[O-])c4)nn(C4CCCC4)c3c2)cc1 [Compound 37, (S)-3-(4-((1-cyclopentyl-3-(4-hydroxy-3-nitrophenyl)-1H-indazol-6-yl)methoxy)phenyl)butanoic acid]
IC50 (Table 3, IC50 class): > 1000 nM

SMILES: CC(CC(=O)O)c1ccc(OCc2ccc3c(-c4ccc(N)cc4)nn(C4CCCC4)c3c2)cc1 (centres unmarked) [Compound 59, 3-(4-((3-(4-aminophenyl)-1-cyclopentyl-1H-indazol-6-yl)methoxy)phenyl)butanoic acid]
IC50 (Table 4, IC50 class): > 1000 nM

Other lines, results leading:

IC50 (Table 3, IC50 class): 100 to 1000 nM
SMILES: CC(CC(=O)O)c1ccc(OCc2ccc3c(-c4cc(F)c(/C=N/O)c(F)c4)nn(C4CCCC4)c3c2)cc1 (centres unmarked) [Compound 34, (E)-3-(4-((1-cyclopentyl-3-(3,5-difluoro-4-((hydroxyimino)methyl)phenyl)-1H-indazol-6-yl)methoxy)phenyl)butanoic acid]

IC50 (Table 4, IC50 class): 100 to 1000 nM
SMILES: Cc1cc(-c2nn(C3CCCC3)c3cc(COc4ccc([C@@H](C)CC(=O)O)cc4)ccc23)cc(C)c1O [Compound 53, (S)-3-(4-((1-cyclopentyl-3-(4-hydroxy-3,5-dimethylphenyl)-1H-indazol-6-yl)methoxy)phenyl)butanoic acid]

IC50 (Table 3, IC50 class): 100 to 1000 nM
SMILES: C[C@@H](CC(=O)O)c1ccc(OCc2ccc3c(-c4cc(Cl)c(O)c(Cl)c4)nn(C4CCCC4)c3c2)cc1 [Compound 44, (S)-3-(4-((1-cyclopentyl-3-(3,5-dichloro-4-hydroxyphenyl)-1H-indazol-6-yl)methoxy)phenyl)butanoic acid]

IC50 (Table 4, IC50 class): > 1000 nM
SMILES: C[C@@H](CC(=O)O)c1ccc(OCc2ccc3c(-c4ccc(O)c(F)c4F)nn(C4CCCC4)c3c2)cc1 [Compound 55, (S)-3-(4-((1-cyclopentyl-3-(2,3-difluoro-4-hydroxyphenyl)-1H-indazol-6-yl)methoxy)phenyl)butanoic acid]

IC50 (Table 3, IC50 class): > 1000 nM
SMILES: CC(CC(=O)O)c1ccc(OCc2ccc3c(-c4cc(Cl)nc(Cl)c4)nn(C4CCCC4)c3c2)cc1 (centres unmarked) [Compound 33, 3-(4-((1-cyclopentyl-3-(2,6-dichloropyridin-4-yl)-1H-indazol-6-yl)methoxy)phenyl)butanoic acid]

IC50 (Table 3, IC50 class): 100 to 1000 nM
SMILES: C[C@@H](CC(=O)O)c1ccc(OCc2ccc3c(-c4cc(Cl)c(O)cc4Cl)nn(C4CCCC4)c3c2)cc1 [Compound 46, (S)-3-(4-((1-cyclopentyl-3-(2,5-dichloro-4-hydroxyphenyl)-1H-indazol-6-yl)methoxy)phenyl)butanoic acid]

IC50 (Table 2, IC50 class): 100 to 1000 nM
SMILES: CC(CC(=O)O)c1ccc(OCc2ccc3c(-c4cc(Cl)c(O)c(Cl)c4)nn(C4CCCC4)c3c2)cc1 (centres unmarked) [Compound 20, 3-(4-((1-cyclopentyl-3-(3,5-dichloro-4-hydroxyphenyl)-1H-indazol-6-yl)methoxy)phenyl)butanoic acid]

IC50 (Table 3, IC50 class): 100 to 1000 nM
SMILES: C[C@@H](CC(=O)O)c1ccc(OCc2ccc3c(-c4cc(F)c(O)cc4F)nn(C4CCCC4)c3c2)cc1 [Compound 45, (S)-3-(4-((1-cyclopentyl-3-(2,5-difluoro-4-hydroxyphenyl)-1H-indazol-6-yl)methoxy)phenyl)butanoic acid]

IC50 (Table 3, IC50 class): > 1000 nM
SMILES: C[C@@H](CC(=O)O)c1ccc(OCc2ccc3c(-c4ccc(O)c(O)c4)nn(C4CCCC4)c3c2)cc1 [Compound 38]
